The results in this text go back to US8710104B2, “Catecholic butanes and use thereof for cancer therapy” (Triact Therapeutics, Inc., priority 2008, dated 2014).

Experiment [1] has as its system H1299 NSCLC cells. The experiment is described as follows: proliferation of H1299 NSCLC cells. The class given is cell-based.
For experiment [2], the target named is T1, IGF-1R (Mus musculus, UniProt Q60751).
T1 construct: from tissue; host or cells: excised subcutaneous MCNeuA breast tumours from MMTVneu transgenic mice
T1 sequence (Q60751 31-1373): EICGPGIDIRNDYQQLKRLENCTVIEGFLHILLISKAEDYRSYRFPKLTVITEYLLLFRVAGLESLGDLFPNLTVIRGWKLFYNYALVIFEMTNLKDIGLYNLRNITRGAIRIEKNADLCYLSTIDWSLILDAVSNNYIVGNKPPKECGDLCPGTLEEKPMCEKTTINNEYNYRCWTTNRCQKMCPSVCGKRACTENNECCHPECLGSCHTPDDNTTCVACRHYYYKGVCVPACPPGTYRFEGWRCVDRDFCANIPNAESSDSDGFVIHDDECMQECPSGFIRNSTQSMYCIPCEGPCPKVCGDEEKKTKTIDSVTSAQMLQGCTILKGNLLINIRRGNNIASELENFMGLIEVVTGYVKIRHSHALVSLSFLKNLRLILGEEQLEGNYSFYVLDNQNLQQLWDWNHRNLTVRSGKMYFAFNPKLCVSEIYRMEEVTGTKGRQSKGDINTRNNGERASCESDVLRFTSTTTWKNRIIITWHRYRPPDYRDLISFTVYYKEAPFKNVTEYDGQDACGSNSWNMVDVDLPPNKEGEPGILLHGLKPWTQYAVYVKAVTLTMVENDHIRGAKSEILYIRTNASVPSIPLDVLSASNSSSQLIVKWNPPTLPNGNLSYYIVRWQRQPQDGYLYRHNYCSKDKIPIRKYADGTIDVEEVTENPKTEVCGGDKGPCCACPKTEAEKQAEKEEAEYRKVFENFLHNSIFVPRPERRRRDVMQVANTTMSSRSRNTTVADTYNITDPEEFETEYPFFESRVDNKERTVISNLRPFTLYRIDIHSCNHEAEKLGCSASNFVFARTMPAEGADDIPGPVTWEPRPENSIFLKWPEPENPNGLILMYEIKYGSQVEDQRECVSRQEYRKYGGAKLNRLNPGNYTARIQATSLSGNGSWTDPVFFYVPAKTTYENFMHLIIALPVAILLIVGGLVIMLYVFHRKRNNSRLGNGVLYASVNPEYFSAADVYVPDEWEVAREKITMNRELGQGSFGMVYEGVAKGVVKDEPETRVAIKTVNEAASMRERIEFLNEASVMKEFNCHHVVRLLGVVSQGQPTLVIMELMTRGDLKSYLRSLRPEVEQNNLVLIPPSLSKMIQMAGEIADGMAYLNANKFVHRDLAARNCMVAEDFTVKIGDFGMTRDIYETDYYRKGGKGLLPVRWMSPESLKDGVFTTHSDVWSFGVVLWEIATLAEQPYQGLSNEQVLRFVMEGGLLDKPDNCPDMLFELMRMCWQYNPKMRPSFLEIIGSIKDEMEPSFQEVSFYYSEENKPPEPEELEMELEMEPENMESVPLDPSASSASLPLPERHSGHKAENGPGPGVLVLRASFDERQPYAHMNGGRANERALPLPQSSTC
The experiment is described as follows: IGF-1R phosphorylation in excised breast tumors by ELISA. Particulars: tumor excised on day 28, 24 hrs after the final treatment. The class given is in vivo, MMTVneu transgenic mice. As to the method:
(§1) MCNeuA cells were implanted in MMTVneu transgenic mice to induce tumor growth. […] Tumor growth was monitored and tumor size was measured at various time points. […] IGF-1R and HER2 phosphorylation were measured by ELISA.
(In general: An ELISA detects its analyte on a solid surface through an enzyme-linked reagent.)

In experiment [3] the test system is subcutaneous HER2 breast tumors (MCNeuA cells). In words: MCNeuA syngeneic breast cancer model, tumor growth. The class given is in vivo, MMTVneu transgenic mice. As to conditions: thrice weekly. The procedure: as §1
Experiment [4] deals with H1975 NSCLC cells. The experiment is described as follows: soft agar colony formation, H1975. In kind it is cell-based. As to conditions: 5 μM or 30 μM TT-100, 8 days; reduced more at higher dose. The procedure: (§2) Colony formation was assessed and compared with the control cells grown in the absence of TT-100.
Experiment [5] concerns the target T2, kinase domain of the IGF-1R (Homo sapiens, UniProt P08069).
T2 construct: recombinant proteins representing the kinase domain of the IGF-1R or EGFR (Cell Signaling Technology, Danvers, Mass.); purchased Cell Signaling Technology, Danvers, Mass
In words: RTK activity ELISA, IGF-1R kinase domain. The class given is biochemical. Particulars: ATP 10 μM, IRS-1 substrate peptide 0.2 μM, 45 minute reaction. The procedure:
(§3) Inhibition of lipoxygenase activity was determined by use of a lipoxygenase inhibitor screening assay kit (Cayman Chemicals, Ann Arbor, Mich.). […] LOX activity was determined by the amount of hydroperoxides produced, as quantified by colorimetric readout. Inhibition of RTK activity was determined by ELISA as follows. […] The reaction was stopped with 50 mM EDTA, and biotin-conjugated substrate was captured on a 96-well streptavidin-coated plate. Tyrosine phosphorylation of captured substrate was determined by incubation with anti-phosphotyrosine antibody conjugated to HRP (Santa Cruz Biotechnology, Santa Cruz, Calif.) and colorimetric readout on a 96 well plate reader.

In experiment [6] the test system is H1975 NSCLC cells expressing EGFR T790M mutation. In words: proliferation of Iressa-resistant H1975 NSCLC cells. As to conditions: 10 μM TT-100, 3 days. In kind it is cell-based.
The test system of experiment [7] is HER2. The experiment is described as follows: HER2 phosphorylation in excised breast tumors by ELISA. In kind it is in vivo, MMTVneu transgenic mice. Particulars: tumor excised on day 28, 24 hrs after the final treatment. The procedure: as §1
Experiment [8] deals with T3, kinase domain of the EGFR (Homo sapiens, UniProt P00533).
T3 construct: recombinant proteins representing the kinase domain of the IGF-1R or EGFR (Cell Signaling Technology, Danvers, Mass.); purchased Cell Signaling Technology, Danvers, Mass
T3 sequence (P00533 712-979 limits assumed): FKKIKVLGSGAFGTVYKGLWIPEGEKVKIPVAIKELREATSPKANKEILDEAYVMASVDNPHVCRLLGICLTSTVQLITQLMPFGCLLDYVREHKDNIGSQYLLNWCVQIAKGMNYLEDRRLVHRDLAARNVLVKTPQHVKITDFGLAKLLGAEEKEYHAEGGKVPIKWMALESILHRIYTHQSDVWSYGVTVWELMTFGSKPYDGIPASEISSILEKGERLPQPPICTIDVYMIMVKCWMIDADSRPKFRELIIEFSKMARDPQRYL
In words: RTK activity ELISA, EGFR kinase domain. In kind it is biochemical. As to conditions: ATP 10 μM, PTP1B substrate peptide 0.2 μM, 45 minute reaction. As to the method: as §3

The test system of experiment [9] is H1299 NSCLC cells. The experiment is described as follows: soft agar colony formation, H1299. In kind it is cell-based. Particulars: 5 μM or 30 μM TT-100, 8 days; reduced more at higher dose. As to the method: as §2
Experiment [10] concerns ovarian cancer. As to conditions: ovarian cancer patients; topotecan about 1.5 mg/m^2 i.v. days 1-5 of a 21-day course.
Excerpt: This example describes a randomized, blinded, placebo-controlled, multicenter, Phase II study designed to provide a preliminary assessment of the safety and efficacy of combining NDGA with topotecan in patients with ovarian cancer. Approximately about 100—about 800 patients are enrolled, with about 50—about 400 patients being assigned to a treatment group and about 50—about 400 patients assigned to a placebo group. The trial will consist of the administration of intravenous repeating doses of NDGA as described above in Example 11 combined with topotecan at about 1.5 mg/m^2 by intravenous infusion on days 1-5 of a 21-day course, with courses repeating throughout the study. Control patients are administered topotecan with placebo. […] Additional outcome measures are as follows:
Primary outcome measure: progression-free survival.

T2 sequence (P08069 999-1274 limits assumed): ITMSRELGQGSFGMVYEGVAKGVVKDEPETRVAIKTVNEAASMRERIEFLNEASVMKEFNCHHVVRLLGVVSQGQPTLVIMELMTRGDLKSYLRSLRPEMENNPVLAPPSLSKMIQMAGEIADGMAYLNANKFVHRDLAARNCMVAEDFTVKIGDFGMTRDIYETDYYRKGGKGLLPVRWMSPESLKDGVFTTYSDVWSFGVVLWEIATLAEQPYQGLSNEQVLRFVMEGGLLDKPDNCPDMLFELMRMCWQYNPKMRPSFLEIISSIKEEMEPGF

In the case of `COc1cc2ncnc(Nc3ccc(F)c(Cl)c3)c2cc1OCCCN1CCOCC1` [Iressa, Gefitinib, reference compound], in experiment [1] (1 μM Iressa, 3 days), the “proliferation (percent growth of the control cells), Iressa alone” value was “resistant”.
Regarding `CC(Cc1ccc(O)c(O)c1)C(C)Cc1ccc(O)c(O)c1` (stereo not drawn) [TT-100, nordihydroguaiaretic acid], the “IGF-1R receptor phosphorylation compared to vehicle-treated control” value in experiment [2] is on record as “significantly inhibited”. For the same compound, the “tumor growth (tumor size)” value in experiment [3] (37.5 mg/kg i.p.) and in experiment [3] (100 mg/kg by gavage (oral)) was “inhibited the growth” in each case. Also, in experiment [1] (10 μM or 20 μM TT-100, 3 days, especially at 20 μM), the “proliferation (percent growth of the control cells), TT-100 alone” value is “inhibited the proliferation”. Further, the “colony formation in soft agar” value in experiment [4] and in experiment [9] was “inhibited colony formation” each time. The “inhibition of tyrosine kinase activity of purified IGF-1R” value in experiment [5] is on record as “directly inhibits”. For the same compound, the “reduction of proliferation (percent growth of the control cells)” value in [6] was “approximately 50%”. For the same compound, the “HER2 receptor phosphorylation compared to vehicle-treated control” value in [7] is “significantly inhibited”. The “inhibition of tyrosine kinase activity of purified EGFR” value in experiment [8] is listed as “directly inhibits”.
On to `CC[C@@]1(O)C(=O)OCc2c1cc1n(c2=O)Cc2cc3c(CN(C)C)c(O)ccc3nc2-1` [topotecan], for which the “progression free survival (goal of the study)” value in experiment [10] was 3-6 months.
